Series [1] is described as follows: Pharmacokinetic testing after single intravenous administration in beagle dogs. Particulars: for clearance / Vd / AUC(0-inf) / AUC(0-t) / half-life / MRT last: dog, mean ± standard deviation; for clearance / Vd: plasma; for Vd: read-out: Vss; for AUC(0-inf) / AUC(0-t) / half-life / MRT last: plasma analyte = label; for MRT last: read-out: MRT0-t. It counts as in vivo. The method, then: (§1) Representative batches of lyophilized powder injection of (S)-ketorolac described in the present application were selected to examine the drug metabolism in vivo of beagle dogs and cynomolgus monkeys. The mode of administration was single intravenous administration. The concentration of (S)-ketorolac and (R)-ketorolac in plasma samples was measured by LC-MS/MS, and the blood drug concentration-time curve was plotted to obtain the main pharmacokinetic parameters and examine the chiral transformation of (S)-ketorolac and (R)-ketorolac in animals.

A short description of series [2]: Solubility of (S)-ketorolac in solvents. It is filed as physicochemical.
The nature of series [3]: Optical stability of (S)-ketorolac in phosphate buffer solutions with different pH values (Test Example 2). It counts as physicochemical. The method, then:
(§2) Phosphate buffer solutions with a pH range of 6.5 to 7.8 were prepared with reference to Chinese Pharmacopoeia (2020 edition). The appropriate amount of (S)-ketorolac (free acid) was added to each phosphate buffer to prepare mixtures of about 20 mg/ml. Each solution was placed in an air bath shaker and shaken at 25° C. for 24 hours, during which the dissolution of (S)-ketorolac in each mixture was observed. The remaining samples were reserved at 25° C. and 40° C., and the formation of isomers was detected after 2 days and 30 days, as shown in Table 2.

The nature of series [4]: Solubility of (S)-ketorolac in phosphate buffer solutions with different pH (Test Example 2). Conditions: 25 °C, aqueous buffer, thermodynamic from solid, read-out: Saturation solubility at 25° C. It is filed as physicochemical. As to the method: as §2
A further series in a line: in vivo. Conditions: cynomolgus monkey, iv. As to the method:
as §1

For series [5] the following is noted: standard animal model of analgesic activity; cited from earlier work.
[6] abbreviates: single intravenous (S)-ketorolac 0.16 mg/kg.
[7] abbreviates: single intravenous (S)-ketorolac 3.2 mg/kg.

Converted amounts (≈) assume the structure as drawn. Where two headings read alike, the source gives them in different places.

A word on the clearance: it is the rate of elimination divided by the concentration. A high value points to a high capacity for elimination. By AUC(0-inf) is commonly meant total exposure, with the tail of the curve extrapolated. A word on the AUC(0-t): it is the area under the concentration-time curve up to a stated or last time point. A low value points to low exposure. Broadly, the half-life is the time needed for the level to fall by half in the phase considered. For `O=C(c1ccccc1)c1ccc2n1CC[C@@H]2C(=O)O` [(S)-ketorolac], the clearance in series [1] (setting [6]) was 3.22 mL/min/kg; in series [1] (setting [7]), 0.472 mL/min/kg; in the series “in vivo” (0.24 mg/kg) it was 1.77 mL/min/kg; in the series “in vivo” (2.4 mg/kg), 1.7 mL/min/kg. The Vd in series [1] (setting [6]) was 1.29 ± 0.432 L/kg; in series [1] (setting [7]), 0.391 L/kg; in “in vivo” (0.24 mg/kg), 0.224 ± 0.0778 L/kg; in the series “in vivo” (2.4 mg/kg) it was 0.18 ± 0.0381 L/kg. The AUC(0-inf) stood at 950 ± 385 ng·h/mL in series [1] (setting [6]) and 117000 ± 25900 ng·h/mL in series [1] (setting [7]). Also, the AUC(0-t) amounted to 545 ± 147 ng·h/mL in series [1] (setting [6]) and 41600 ± 3540 ng·h/mL in series [1] (setting [7]). Moreover, the half-life was 7.13 ± 2.93 h in series [1] (setting [6]) and 10.3 ± 2.18 h in series [1] (setting [7]). Further, the figures for the MRT last in series [1] (setting [6]) and in series [1] (setting [7]) were 1.61 ± 0.4 h and 2.5 ± 0.149 h, respectively. The “solubility in anhydrous ethanol” value in series [2] (anhydrous ethanol) is “sparingly soluble”. Also, in series [2] (dichloromethane), the solubility in dichloromethane entry is recorded as “slightly soluble”. Moreover, in series [2] (dimethylformamide), the solubility in dimethylformamide entry is “freely soluble”. For the same compound, the solubility in methanol entry in series [2] (methanol) is “soluble”. Besides, the solubility in water result in series [2] (water) is “nearly or completely insoluble”. Besides, the Isomer purity determined was found to be 0.20% in series [3] (phosphate buffer pH 6.5, 25° C., Day 2); 3.43% in series [3] (phosphate buffer pH 6.5, 25° C., Day 30); 27.90% in series [3] (phosphate buffer pH 6.5, 40° C., Day 30); 0.21% in series [3] (phosphate buffer pH 6.8, 25° C., Day 2); 3.22% in series [3] (phosphate buffer pH 6.8, 25° C., Day 30); 28.14% in series [3] (phosphate buffer pH 6.8, 40° C., Day 30). Further, the Isomer purity determined in series [3] (phosphate buffer pH 7.0, 25° C., Day 2) is 0.22%; in series [3] (phosphate buffer pH 7.0, 25° C., Day 30), 3.20%; in series [3] (phosphate buffer pH 7.0, 40° C., Day 30), 27.11%; in series [3] (phosphate buffer pH 7.2, 25° C., Day 2) it was 0.22%; in series [3] (phosphate buffer pH 7.2, 25° C., Day 30), 3.34%; in series [3] (phosphate buffer pH 7.2, 40° C., Day 30), 27.71%. Besides, the Isomer purity determined was found to be 0.21% in series [3] (phosphate buffer pH 7.4, 25° C., Day 2); 3.31% in series [3] (phosphate buffer pH 7.4, 25° C., Day 30); 23.91% in series [3] (phosphate buffer pH 7.4, 40° C., Day 30); 0.22% in series [3] (phosphate buffer pH 7.6, 25° C., Day 2); 3.43% in series [3] (phosphate buffer pH 7.6, 25° C., Day 30); 24.35% in series [3] (phosphate buffer pH 7.6, 40° C., Day 30). Besides, the Isomer purity determined is reported as 0.51% in series [3] (phosphate buffer pH 7.8, 25° C., Day 2); 4.92% in series [3] (phosphate buffer pH 7.8, 25° C., Day 30); 21.28% in series [3] (phosphate buffer pH 7.8, 40° C., Day 30). Further, the “optical purity of (S)-ketorolac” value in series [3] (samples in the solution state (phosphate buffer), stored at 25° C. for one month) was “greater than or equal to 95%”. The solubility at 24 h in series [4] (phosphate buffer solution pH 6.5) is 1860 µg/mL (≈ 7.29 mM); in series [4] (phosphate buffer solution pH 6.8) it was 3030 µg/mL (≈ 11.9 mM); in series [4] (phosphate buffer solution pH 7.0), 4090 µg/mL (≈ 16 mM); in series [4] (phosphate buffer solution pH 7.2) it was 4520 µg/mL (≈ 17.7 mM); in series [4] (phosphate buffer solution pH 7.4), 4720 µg/mL (≈ 18.5 mM); in series [4] (phosphate buffer solution pH 7.6), 5220 µg/mL (≈ 20.4 mM). Also, the solubility at 24 h in series [4] (phosphate buffer solution pH 7.8) is at least 24200 µg/mL.

As to `O=C(c1ccccc1)c1ccc2n1CCC2C(=O)O` (racemic) [ketorolac tromethamine], the “analgesic activity relative to that of Aspirin” value in series [5] is 800 times.

With `O=C(c1ccccc1)c1ccc2n1CC[C@H]2C(=O)O` [(R)-ketorolac], in series [1] (setting [6]), the AUC(0-inf) turned out to be 79.2 ± 57 ng·h/mL, the exposure AUC(0-t) worked out at 11.7 ± 1.21 ng·h/mL, the half-life is 22.7 ± 16.8 h and the MRT last turned out to be 3.07 ± 0.144 h. Also, the “Chiral transformation rate = (AUC0-t)R/[(AUC0-t)S + (AUC0-t)R] × 100” value in series [1] (setting [6]) came out at 2.10%. Moreover, in series [1] (setting [7]), the area under the curve AUC(0-t) was found to be 724 ± 259 ng·h/mL, the MRT last stood at 3.52 ± 0.33 h and the “Chiral transformation rate = (AUC0-t)R/[(AUC0-t)S + (AUC0-t)R] × 100” value was 1.71%.

(Values after patent US20240173296A1, “PHARMACEUTICAL COMPOSITION OF (S)-KETOROLAC AND PREPARATION METHOD THEREFOR” (NANJING HERON PHARMACEUTICAL SCIENCE AND TECHNOLOGY CO., …, priority 2021, published 2024).)
